In article PMC8286840, “Identifying SARS-CoV-2 antiviral compounds by screening for small molecule inhibitors of Nsp3 papain-like protease” (Biochemical Journal, 2021) one finds remaining activity data, which are given here for 32 compounds.

Test [1] addresses T1, SARS-CoV-2 PLpro (nsp3 1564–1878) (Severe acute respiratory syndrome coronavirus 2, UniProt P0DTD1). In words: biochemical. Also noted: FRET-quenched peptide (Pro3) cleavage by PLpro, 10 min pre-incubation, slope over 20 min, normalised to no-compound control. Conditions: high concentration screen, read-out: % of control remaining.
Test [2] has as its target T1, SARS-CoV-2 PLpro (nsp3 1564–1878). As to the kind of experiment: biochemical. Set-up: FRET-quenched peptide (Pro3) cleavage by PLpro, 10 min pre-incubation, slope over 20 min, normalised to no-compound control. The note with it: low concentration screen, read-out: % of control remaining.

Counter-ions that a name gives are not always drawn. Like-named read-outs stand apart in the source and are kept apart here.

`C[C@H](CCC(=O)NCCS(=O)(=O)O)[C@H]1CC[C@H]2[C@@H]3[C@H](O)C[C@@H]4C[C@H](O)CC[C@]4(C)[C@H]3CC[C@]12C` [Taurochenodeoxycholic acid]: the remaining activity at 3.75 µM in test [1] (Well no.=6294) was determined as 101%; in test [1] (Well no.=6493) it was 103%. Also, the remaining activity at 1.25 µM in test [2] (Well no.=6294) was 101%.

Turning to `O=C[C@H](O)[C@@H](O)[C@@H](O)[C@H](O)CO` [D-Galactose], in test [1] (Well no.=6871), the remaining activity at 3.75 µM worked out at 96.9%. Moreover, the remaining activity at 1.25 µM in test [2] (Well no.=6871) was found to be 103%.

With `COc1ccc(-c2nc3cc(C4=NNC(=O)CC4C)ccc3[nH]2)cc1` (stereo not shown) [Pimobendan (Vetmedin)], the remaining activity at 3.75 µM in test [1] (Well no.=4957) stood at 103%. The remaining activity at 1.25 µM in test [2] (Well no.=4957) worked out at 100%.

For the compound `Cc1cc(C=C2C(=O)C=CC2=O)cc(C)c1O` [TX-1918], the remaining activity at 3.75 µM in test [1] (Well no.=2677) worked out at 98.1%. The remaining activity at 1.25 µM in test [2] (Well no.=2677) was 96.7%.

Consider `O=C(O)c1ccc(O)cc1` [4-Hydroxybenzoic acid], for which, in test [1] (Well no.=6729), the remaining activity at 3.75 µM came to 105%. Besides, in test [2] (Well no.=6729), the remaining activity at 1.25 µM came out at 108%.

In the case of `COc1cc2ncnc(Sc3nnc(C)s3)c2cc1OC` [SKLB1002], the remaining activity at 3.75 µM in test [1] (Well no.=5943) is 102%. Moreover, the remaining activity at 1.25 µM in test [2] (Well no.=5943) is 102%.

Consider `CC(C)(C)NCC(O)COc1nsnc1N1CCOCC1` (stereo not drawn) [S(-)-Timolol maleate], for which the remaining activity at 3.75 µM in test [1] (Well no.=1483) came to 96%. In addition, the remaining activity at 1.25 µM in test [2] (Well no.=1483) came out at 97.1%.

With `C#CCNCc1cc2cc(OCc3ccccc3)ccc2[nH]1` [N-((5-(benzyloxy)-1H-indol-2-yl)methyl)prop-2-yn-1-amine], in test [1] (Well no.=5630), the remaining activity at 3.75 µM came to 96.5%. The remaining activity at 1.25 µM in test [2] (Well no.=5630) is 95.4%.

Consider `Cc1c[nH]c(=O)[nH]c1=O` [Thymine], for which the remaining activity at 3.75 µM in test [1] (Well no.=6629) was found to be 108%. For the same compound, the remaining activity at 1.25 µM in test [2] (Well no.=6629) amounted to 103%.

Regarding `CCCCCCCCCCCC1N[C@H](C(=O)O)CS1` (stereo partly drawn) [(4R) - 2-Undecyl-4-thiazolidinecarboxylic acid], the remaining activity at 3.75 µM in test [1] (Well no.=5484) stood at 106%. Also, the remaining activity at 1.25 µM in test [2] (Well no.=5484) was 104%.

For the compound `CN(C)[C@@H]1CCc2[nH]c3ccc(NC(=O)c4ccc(F)cc4)cc3c2C1` [N-[(3R)-3-(dimethylamino)-2,3,4,9-tetrahydro-1H-carbazol-6-yl]-4-fluorobenzamide hydrochloride], the remaining activity at 3.75 µM in test [1] (Well no.=6008) worked out at 95.9%. The remaining activity at 1.25 µM in test [2] (Well no.=6008) was found to be 97.7%.

Regarding `CCN[C@H]1C[C@H](C)S(=O)(=O)c2sc(S(N)(=O)=O)cc21` [Dorzolamide HCl], in test [1] (Well no.=5205), the remaining activity at 3.75 µM was found to be 95%. Moreover, the remaining activity at 1.25 µM in test [2] (Well no.=5205) worked out at 92.8%.

`Cc1noc(-c2ccc(-c3ccc(CC(=O)O)cc3)cc2)c1NC(=O)O[C@H](C)c1ccccc1Cl` [AM966]: in test [1] (Well no.=6941), the remaining activity at 3.75 µM is 102%. The remaining activity at 1.25 µM in test [2] (Well no.=6941) was determined as 104%.

For `Nc1nc2c(ncn2[C@H]2C[C@H](O)[C@@H](CO)O2)c(=O)[nH]1` [2'-Deoxyguanosine], the values for the remaining activity at 3.75 µM in test [1] (Well no.=6209) and in test [1] (Well no.=7772) were 97.7% and 101%, respectively. Also, the remaining activity at 1.25 µM is 102% in test [2] (Well no.=6209) and 99.2% in test [2] (Well no.=7772).

`COc1ccc2[nH]cc(CCN)c2c1` [O-Methylserotonin hydrochloride]: the remaining activity at 3.75 µM in test [1] (Well no.=1076) was 97%. Also, in test [2] (Well no.=1076), the remaining activity at 1.25 µM amounted to 94%.

As for `Cc1cc(C(C)(C)C)c(O)c(C)c1CC1=NCCN1` [Oxymetazoline hydrochloride], in test [1] (Well no.=896), the remaining activity at 3.75 µM stood at 101%. Further, the remaining activity at 1.25 µM in test [2] (Well no.=896) amounted to 103%.

Consider `CC[C@H]1[C@@H](O)[C@@H]2[C@H](CC[C@]3(C)[C@@H]([C@H](C)CCC(=O)O)CC[C@@H]23)[C@@]2(C)CC[C@@H](O)C[C@@H]12` [Obeticholic Acid], for which, in test [1] (Well no.=8720), the remaining activity at 3.75 µM is 93%. In addition, the remaining activity at 1.25 µM in test [2] (Well no.=8720) turned out to be 90.8%.

Take `Nc1ccc(C(=O)O)c(O)c1` [Sodium 4-Aminosalicylate]: in test [1] (Well no.=4974), the remaining activity at 3.75 µM worked out at 95.6%. In addition, the remaining activity at 1.25 µM in test [2] (Well no.=4974) was determined as 101%.

Regarding `O=C(O)CCCCCCCCC(=O)O` [Decanedioic acid], the remaining activity at 3.75 µM in test [1] (Well no.=6453) was found to be 95.8%. In addition, the remaining activity at 1.25 µM in test [2] (Well no.=6453) came to 93%.

Take `C[C@@H]([C@@H](O)c1ccc(O)cc1)N1CCC(O)(c2ccccc2)CC1` [CP-101,606]: the remaining activity at 3.75 µM in test [1] (Well no.=5843) worked out at 93.1%. Moreover, the remaining activity at 1.25 µM in test [2] (Well no.=5843) was found to be 94.8%.

On to `Nc1n[nH]c(N)c1N=Nc1ccc(O)cc1` [Cdk9 Inhibitor II], for which, in test [1] (Well no.=2395), the remaining activity at 3.75 µM stood at 103%. The remaining activity at 1.25 µM in test [2] (Well no.=2395) came out at 104%.

As to `CCCCCCCCCCCCCCCC(=O)N[C@@H](COP(=O)(O)O)C(=O)O` [L-NASPA], the remaining activity at 3.75 µM in test [1] (Well no.=4499) stood at 94.8%. Further, the remaining activity at 1.25 µM in test [2] (Well no.=4499) worked out at 91.6%.

In the case of `CCCOc1ccc2[nH]c(NC(=O)OC)nc2c1` [Oxibendazole], in test [1] (Well no.=2061), the remaining activity at 3.75 µM was determined as 98.3%. In test [2] (Well no.=2061), the remaining activity at 1.25 µM is 99%.

In the case of `Cc1noc(-c2ccc(-c3ccc(CC(=O)O)cc3)cc2)c1NC(=O)O[C@H](C)c1ccccc1` [AM095], the remaining activity at 3.75 µM in test [1] (Well no.=7815) stood at 94%. In test [2] (Well no.=7815), the remaining activity at 1.25 µM was 101%.

Take `COc1ccc(CCNC[C@@H](O)c2ccc(O)cc2)cc1OC` [R(-)-Denopamine]: the remaining activity at 3.75 µM in test [1] (Well no.=1498) came to 100%. In test [2] (Well no.=1498), the remaining activity at 1.25 µM came to 103%.

Turning to `CCC(NC(C)C)C(O)c1ccc(O)c(O)c1` (stereo not shown) [Isotharine mesylate], the remaining activity at 3.75 µM in test [1] (Well no.=915) turned out to be 104%. The remaining activity at 1.25 µM in test [2] (Well no.=915) came to 104%.

As to `CC(N)=O` [Acetamide], the remaining activity at 3.75 µM in test [1] (Well no.=7) stood at 101%. For the same compound, the remaining activity at 1.25 µM in test [2] (Well no.=7) amounted to 101%.

`CCCC(CCC)C(=O)O` [Valproic acid sodium]: the remaining activity at 3.75 µM in test [1] (Well no.=812) came to 99.4%. Also, in test [2] (Well no.=812), the remaining activity at 1.25 µM stood at 99.6%.

Consider `CC(=O)OC[C@H](N)C(=O)O` [O-Acetylserine], for which the remaining activity at 3.75 µM in test [1] (Well no.=6965) was 104%. In addition, in test [2] (Well no.=6965), the remaining activity at 1.25 µM was 101%.

Take `c1ccc2c3c([nH]c2c1)[C@H]1[C@@H]2CC[C@@H]([C@@H]4CCCN[C@@H]42)N1CC3`: the remaining activity at 3.75 µM in test [1] (Well no.=3163) was 103%. Moreover, the remaining activity at 1.25 µM in test [2] (Well no.=3163) amounted to 105%.

On to `CCC(=O)O[C@@H](O[P@](=O)(CCCCc1ccccc1)CC(=O)N1C[C@H](C2CCCCC2)C[C@H]1C(=O)O)C(C)C` [Fosinopril Sodium], for which the remaining activity at 3.75 µM in test [1] (Well no.=8492) came to 102%. Also, the remaining activity at 1.25 µM in test [2] (Well no.=8492) came out at 101%.

Consider `CC(C)(C)C(O)/C(=C\c1ccc(Cl)cc1)n1cncn1` (stereo not shown) [Uniconazole], for which the remaining activity at 3.75 µM in test [1] (Well no.=8248) turned out to be 102%. In addition, in test [2] (Well no.=8248), the remaining activity at 1.25 µM worked out at 104%.
